Reference: article PMC11253858, “New melphalan derivatives for the treatment of retinoblastoma in combination with thermotherapy” (RSC Medicinal Chemistry, 2024)
“And” between values parts separate entries of the source, which are not always exact repeats. Identical values can stand only once. Like-named read-outs stand apart in the source and are kept apart here.

Key:
[1] = system: Y79 human retinoblastoma cell line; test: Presto blue cell viability assay in Y79 after 24 hours; format: cell-based; conditions: for IC50: Homo sapiens; for fold increase in cytotoxicity (lower IC50) compared to melphalan / cytotoxicity at the elevated temperature relative to 37 °C: Y79, 24 hours; for fold increase in cytotoxicity (lower IC50) compared to melphalan: 37 °C; for cytotoxicity at the elevated temperature relative to 37 °C: 42 °C for 1 hour vs 37 °C
Protocol: The IC50 values were determined using the presto blue cell viability assay (Table 1).
(§1) The human retina (RPE1) and retinoblastoma (Y79) cell lines were purchased from ATCC, Switzerland. RPMI 1640, DMEM high glucose Glutamax and DMEM GlutaMAX media were obtained from Life Technologies, and fetal bovine serum (FBS) was obtained from Sigma. Cell culture was performed in RPMI 1640 with 20% FBS and DMEM high glucose Glutamax with 10% FBS for Y79 and RPE1, respectively. Cell passage was performed twice per week using the appropriate medium and the resulting flaks were maintained in a bioincubator (Thermo Scientific, Switzerland) that controlled the humidity and fixed the CO2 rate to 5%. Cell viability tests were conducted in a flat bottomed 96 or 384 well plate using a compound stock solution prepared in dimethyl sulfoxide (DMSO) for all compounds except Cisplatin. The maximum concentration of DMSO in the wells was 0.1% DMSO.
2. Presto Blue cell viability assay in Y79 after 24 hours
The optimization of the starting concentration was carried out for each tested compound after 24 h of incubation. In order to conduct the tests at the mentioned time lapses, Y79’s work cell solutions were prepared at 10 6 cell/mL for the 24 h experiment. The same protocol as described below was used, however in this case, the experiment was conducted […]
3. Presto Blue cell viability assay in Y79 and RPE1 cells at 72 h […]
tests were conducted using cell work solutions at 4x10^5 and 7x10^5 cell/mL respectively and compound stock solutions were prepared at 10 µM in DMSO. The robotic System (Echo 550 […]
LIQUID HANDLER) charged the 384-cell plate with a decreasing volume of each compound’s SS in order to have a concentration gradient that covers 100 to 0.7 µM. DMSO was added to […]
added in the plate using a disperser (Thermo Scientific Multidrop Combi, Switzerland).
(§2) For thermal assays, the plates were placed in a heat chamber at 42 °C for 1 h and then transferred to a bioincubator at 37 °C for 71 h where the control plates were already placed. After 72 h of a total incubation time, […] of presto blue were added to each well and all the plates were incubated for 1 h at 37 °C. For presto blue cell viability assays, gambogic acid was used at 10 µM and represented the positive control, while DMSO at a final concentration of 0.1% presented the negative control. Fluorescence was measured using a […]
(§3) plate reader (Tecan […] F500 reader, Switzerland) at 560 nm for […] and 590 nm for fluorescence. The normalization of the fluorescence’s intensities was conducted with GraphPad software using Gambogic acid and DMSO as positive and negative control, […]

[2] = system: human retinoblastoma cells (Y79); test: Presto Blue cell viability assay in Y79 cells at 72 h; format: cell-based
Protocol: (§4) The cytotoxicity of the two most promising derivatives, i.e.3d and 3e, was subsequently evaluated on human retinoblastoma (Y79) and healthy human retina (RPE1) immortalised cells after 72 hours of incubation in 2D settings under standard conditions, i.e. at 37 °C and 5% CO2, and also under conditions that mimic mild hyperthermia, i.e. at 42 °C for 1 hour followed by 71 hours at 37 °C, respectively, see Table 2.
as §1, with “DMSO. […]” for “DMSO.”
(§5) 3. Presto Blue cell viability assay in Y79 and RPE1 cells at 72 h
(§6) In order to evaluate the cytotoxicity of 3a-3f on Y79 and RPE1 cell lines, cell viability tests were conducted using cell work solutions at 4x10^5 and 7x10^5 cell/mL respectively and compound stock solutions were prepared at 10 µM in DMSO. The robotic System (Echo 550 […]
(§7) LIQUID HANDLER) charged the 384-cell plate with a decreasing volume of each compound’s SS in order to have a concentration gradient that covers 100 to 0.7 µM. DMSO was added to each well so as to have the same final volume of compound’s solution in each well. Cells were added in the plate using a disperser (Thermo Scientific Multidrop Combi, Switzerland).
as §2, §3

[3] = system: dsDNA oligonucleotide 5'-AGGCAG-3' (B1) / 3'-TCCGTC-5' (B2); test: DNA binding ESI-MS study with model double stranded oligonucleotide; conditions: 37 °C, 48 hours incubation; for adduct formation with the dsDNA oligonucleotide (ESI-MS): 1 : 5 ratio
Protocol: The resulting solutions were measured by electrospray ionization mass spectrometry (ESI-MS) and the analysis of the spectra[45] is provided in the ESI ^† and summarised in Fig. 2a.
Furthermore, the relative amount of melphalan derivative-bound dsDNA follows the same trend as the toxicity of the compounds. […] The relative amount of these adducts decreases with the chain length, which could be a consequence of the higher hydrophobicity of the compounds and hint at a higher resistance to hydrolysis. […] No crosslinked DNA adducts, known to be relevant hallmarks in the melphalan mechanism of action, were detected, probably due to the difficulty to observe them upon ionization.[47]

[4] = system: healthy human retina (RPE1) immortalised cells; test: Presto Blue cell viability assay in RPE1 cells at 72 h; format: cell-based; conditions: for cytotoxicity to healthy RPE1 cells relative to tumoral Y79 cells (selectivity): 72 hours; for IC50: Homo sapiens, RPE-1
Protocol: as §4
as §1, with “DMSO. […]” for “DMSO.”
as §5, §6, §7, §2, §3

[5] = system: myeloma RPMI 8226 cell line; set-up: method as in PMID 32161295; conditions: cited from earlier work
[6] = Y79, 1 hour at 42 °C followed by 23 hours at 37 °C, read-out: IC50 42 °C
[7] = Y79, 24 hours at 37 °C, 5% CO2, read-out: IC50 37 °C
[8] = Y79, 1 hour at 42 °C followed by 71 hours at 37 °C, read-out: Y79 IC50 42 °C
[9] = Y79, 72 hours at 37 °C, read-out: Y79 IC50 37 °C
[10] = RPE1, 1 hour at 42 °C followed by 71 hours at 37 °C, read-out: RPE1 IC50 42 °C
[11] = RPE1, 72 hours at 37 °C, read-out: RPE1 IC50 37 °C

Work on `N[C@@H](Cc1ccc(N(CCCl)CCCl)cc1)C(=O)OCCC(F)(F)F` [Compound 3a] yielded an IC50 [1, 6] of 1.1 ± 0.1 µM and an IC50 [1, 7] of 1.2 ± 0.1 µM.
For `N[C@@H](Cc1ccc(N(CCCl)CCCl)cc1)C(=O)OCCC(F)(F)C(F)(F)F` [Compound 3b], the IC50 [1, 6] was 1.8 ± 0.1 µM and the IC50 [1, 7] was 2.2 ± 0.1 µM.
In the case of `N[C@@H](Cc1ccc(N(CCCl)CCCl)cc1)C(=O)OCCC(F)(F)C(F)(F)C(F)(F)C(F)(F)F` [Compound 3c], the IC50 [1, 6] is reported as 2.1 ± 0.2 µM and the IC50 [1, 7] is reported as 3.4 ± 0.2 µM.
For `Cl.N[C@@H](Cc1ccc(N(CCCl)CCCl)cc1)C(=O)OCCC(F)(F)C(F)(F)C(F)(F)C(F)(F)C(F)(F)C(F)(F)F` [Compound 3d], the IC50 [1, 6] was 3.3 ± 0.2 µM, the IC50 [1, 7] was 5.9 ± 0.3 µM and the “fold increase in cytotoxicity (lower IC50) compared to melphalan” value [1] was 5 to 10 fold and 10 fold. For the same compound, the “cytotoxicity at the elevated temperature relative to 37 °C” value [1] was “approximately twice as cytotoxic”, the IC50 [2, 8] was 2.1 ± 0.2 µM and the IC50 [2, 9] was 2.3 ± 0.1 µM. The “extent of ester cleavage in oligonucleotide adducts (ESI-MS)” value [3] was “more significant”, the “cytotoxicity to healthy RPE1 cells relative to tumoral Y79 cells (selectivity)” value [4] was “more than an order of magnitude less cytotoxic” and the IC50 [4, 10] was 31.5 ± 2.7 µM. For the same compound, the IC50 [4, 11] was 39.3 ± 5 µM.
In the case of `Cl.N[C@@H](Cc1ccc(N(CCCl)CCCl)cc1)C(=O)OCCC(F)(F)C(F)(F)C(F)(F)C(F)(F)C(F)(F)C(F)(F)C(F)(F)C(F)(F)F` [Compound 3e], the IC50 [1, 6] is reported as 6.6 ± 0.4 µM, the IC50 [1, 7] is reported as 13 ± 0.4 µM and the “fold increase in cytotoxicity (lower IC50) compared to melphalan” value [1] is reported as 5 to 10 fold and 5 fold. The “cytotoxicity at the elevated temperature relative to 37 °C” value [1] was “approximately twice as cytotoxic”, the IC50 [2, 8] was 4.4 ± 0.3 µM and the IC50 [2, 9] was 4.5 ± 0.1 µM. For the same compound, the “extent of ester cleavage in oligonucleotide adducts (ESI-MS)” value [3] was “more significant”, the “cytotoxicity to healthy RPE1 cells relative to tumoral Y79 cells (selectivity)” value [4] was “more than an order of magnitude less cytotoxic” and the IC50 [4, 10] was 42.3 ± 6 µM. For the same compound, the IC50 [4, 11] was 52.8 ± 9.3 µM.
In the case of `Cl.N[C@@H](Cc1ccc(N(CCCl)CCCl)cc1)C(=O)OCCC(F)(F)C(F)(F)C(F)(F)C(F)(F)C(F)(F)C(F)(F)C(F)(F)C(F)(F)C(F)(F)C(F)(F)F` [Compound 3f], the IC50 [1, 6] is reported as 183 ± 20 µM, the IC50 [1, 7] is reported as > 200 µM and the “adduct formation with the dsDNA oligonucleotide (ESI-MS)” value [3] is reported as “no adducts were observed”.
For `N[C@@H](Cc1ccc(N(CCCl)CCCl)cc1)C(=O)O` [Melphalan], the IC50 [1, 6] was 26 ± 2 µM, the IC50 [1, 7] was 59 ± 5 µM and the “adduct formation with the dsDNA oligonucleotide (ESI-MS)” value [3] was “formed adducts with both strands of the oligonucleotides”.
In the case of `CCOC(=O)C(N)Cc1ccc(N(CCCl)CCCl)cc1` (stereo not shown) [ethyl ester derivative of melphalan], the IC50 [5] is listed as 1.2 ± 0.3 µM and the “fold increase in cytotoxicity compared to melphalan” value [5] is listed as 8 fold.
